Measurements from patent US20100210597A1, “C21-Deoxy Ansamycin Derivatives as Antitumor Agents” (priority 2007, published 2010).
≈ marks a conversion by molar mass, not a printed value. Where “and” joins values, the source holds several entries; their conditions need not be identical. Equal entries are not always repeated. Where two headings read alike, the source gives them in different places.

Tests used:
[1] = Solubility assay in 2% DMSO in PBS; type: physicochemical; conditions: 2% DMSO in PBS pH 7.3, 0.5 mM, shaken up to six hours
Description: To analyse the solubilities of 17-AAG, geldanamycin, 18,21-dihydromacbecin and macbecin, solutions (25 mM) of the test compounds were prepared by dissolving 3-5 mg aliquots in the appropriate amount of DMSO.
Aliquots (0.01 mL) were added to 0.490 mL of pH 7.3 PBS in glass vials. For each time point, 3 PBS vials were prepared in amber glass vials. For the six hour time point triplicate aliquots in DMSO were also prepared.
The resulting 0.5 mM solutions were shaken for up to six hours, with vials removed for analysis at 1, 3 and 6 hours. Samples were analysed by HPLC (0.025 mL injections). Compounds were quantified by peak area measurement at 274 nm.
Solubility in 2% DMSO in PBS at each time point was determined by comparing total peak areas for each chromatogram with mean total peak area for chromatograms produced from the corresponding 6 hour DMSO solutions. (Mean total peak area in DMSO solutions was assumed to be equivalent to a 0.5 mM solution). The solubility of compound 17 was measured by a thermodynamic assay as described in the general methods.

[2] = tested on: panel of human tumour cell lines; assay: Monolayer proliferation assay, mean across cell line panel; type: cell-based; conditions: geometric mean of all replicates across six cell lines
Description: In vitro evaluation of compounds for anticancer activity in a panel of human tumour cell lines in a monolayer proliferation assay was carried out at the Oncotest Testing Facility, Institute for Experimental Oncology, Oncotest GmbH, Freiburg.
The Oncotest cell lines are established from human tumor xenografts as described by Roth et al., (1999). The origin of the donor xenografts is described by Fiebig et al., (1999). Other cell lines are either obtained from the NCl (DU145, MCF-7) or purchased from DSMZ, Braunschweig, Germany.
All cell lines, unless otherwise specified, are grown at 37° C. in a humidified atmosphere (95% air, 5% CO2) in a ‘ready-mix’ medium containing RPMI 1640 medium, 10% fetal calf serum, and 0.1 mg/mL gentamicin (PAA, Cölbe, Germany).
A modified propidium iodide assay was used to assess the effects of the test compound(s) on the growth of six human tumour cell lines (Dengler et al., (1995)).
Briefly, cells are harvested from exponential phase cultures by trypsinization, counted and plated in 96 well flat-bottomed microtitre plates at a cell density dependent on the cell line (5-10.000 viable cells/well). […] After thawing the plates, fluorescence was measured using the Cytofluor 4000 microplate reader (excitation 530 nm, emission 620 nm), giving a direct relationship to the total number of viable cells.
Growth inhibition is expressed as treated/control×100 (% T/C). […]

Hsp90 = Hsp90 (Homo sapiens, UniProt P07900); conditions: cited from earlier work
[3] = Aqueous solubility by direct dissolution; type: physicochemical; conditions: pH 4.5, aqueous buffer, aqueous 5 mM citrate, pH 4.5; limit not tested
Excerpt: It is not possible to measure the solubility of 20 and 23 by this method due to their intrinsic high aqueous solubility.

[4] = In vitro cleavage assay in buffer; type: physicochemical; conditions: for half-life at 0.1 mg/ml: read-out: half-life of disappearance (converted)
Description: Samples were monitored by LC-UV, on an Agilent 1100 HPLC. Chromatography was achieved over a Phenomenex Hyperclone column, BDS C18 3 u (150×4.6 mm):
Mobile phase A: 0.1% Formic acid in water Mobile phase B: 0.1% Formic acid in acetonitrile Flow rate: 1 mL/minute: Gradient, t=0 mins, B=10%; t=2 mins, B=10%; t=20 mins, B=100%.
Compound 23 elutes at 12.1 mins and compound 17 elutes at 11.2 minutes in these conditions.
0.05 ml injections were made, repeatedly from the same sample every 3.18 hours, for 50 hours. the ambient temperature was 23 degrees C. The UV response was measured for each time point for compound 23 and 17. The half-life of disappearance of compound 23 was calculated thus:
the natural logarithm of the response was plotted with respect to time (in hours). The slope and fit of the resultant line was calculated and the half life, t1/2=(In 2)/lambda. Where lambda is the slope of the graph.

C=CCNC1=C2C[C@@H](C)C[C@H](OC)[C@H](O)[C@@H](C)/C=C(\C)[C@H](OC(N)=O)[C@@H](OC)/C=C\C=C(/C)C(=O)NC(=CC1=O)C2=O [Compound 17-AAG, 17-(allylamino)-17-desmethoxy geldanamycin]
solubility [1]: 0.171 mM (≈ 100 µg/mL)

CO[C@H]1[C@@H](OC)C[C@H](C)[C@@H](OC)C2=CC(=O)C=C(NC(=O)/C(C)=C/C=C\[C@H](C)[C@@H](OC(N)=O)/C(C)=C/[C@@H]1C)C2=O [macbecin, reference compound]
average IC70 value across the cell-line panel [2]: 0.21 µg/mL

COC1CC(C)C(OC)c2cc(O)cc(c2O)NC(=O)/C(C)=C\C=C/C(C)C(OC(N)=O)/C(C)=C\C(C)C1OC (stereo not drawn) [18,21-dihydromacbecin]
solubility [1]: 0.136 mM (≈ 76.3 µg/mL)

CO[C@H]1C[C@H](C)Cc2cc(O)cc(c2)NC(=O)/C=C/CC[C@H](OC)[C@@H](OC(N)=O)/C(C)=C/[C@H](C)[C@H]1O [KOSN1559]
binding affinity to Hsp90, greater than 17-AAG (Hsp90; relative to 17-AAG): 8 fold
binding affinity to Hsp90, greater than geldanamycin (Hsp90; relative to geldanamycin): 4 fold

CNCCN(C)C(=O)Oc1cc2cc(c1)NC(=O)/C(C)=C/CC[C@H](C)[C@@H](OC(N)=O)/C(C)=C/[C@H](C)[C@@H](O)[C@@H](OC)C[C@H](C)C2 [Compound 23, 18-O-(N,N′-dimethylethylenediaminecarbamoyl)-4,5-dihydro-11-O-demethyl-15-demethoxy-18,21-didehydro-18-hydroxy-21-deoxomacbecin]
solubility [3]: ≥ 3000 µg/mL and ≥ 4600 µM
half-life of disappearance ([4]; 0.1 M potassium phosphate buffer pH 4.5, 23 degrees C): not calculable (zero slope)
half-life at 0.1 mg/ml ([4]; 0.1 M potassium phosphate buffer pH 5.9, 23 degrees C): 4160 min
half-life at 0.1 mg/ml ([4]; 0.1 M potassium phosphate buffer pH 6.5, 23 degrees C): 714 min
half-life at 0.1 mg/ml ([4]; 0.1 M potassium phosphate buffer pH 7.4, 23 degrees C): 120 min
half-life at 0.1 mg/ml ([4]; 5% glucose, 23 degrees C): 1920 min
product of cleavage ([4]; by LC-UV-MS): compound 17
